Entries after “also recorded” stand apart in the source; their conditions may differ.
Legend:
[1] = system: Human prostate (HPV) cells; type: cell-based; details: overnight incubation; 10 μl of 1.5 mM stock per 500 μl medium; ±SEM
Protocol: (§1) Human prostate (HPV) cells were grown under standard conditions. When the cultures reached 40% confluence, the cells were fed basal medium alone for 24 hours and then incubated overnight in medium containing a test substance or sham. The cells were then treated with saturating quantities of ^3H-thymidine (New England Nuclear, Boston, Mass.); DNA was precipitated with 5% perchlorate and relative incorporated thymidine was assessed with a beta counter. Experiments were performed in quadruplicate and averaged. Results reported represent a minimum of three separate quadruplicate experiments.
(§2) The reagents used for tissue culture were iopanoic acid (Sigma, St. Louis, Mo.), sodium ipodate (Fitzgerald Industries International, Flanders, N.J.), and propranolol (Sigma, St. Louis, Mo.). Reagents were dissolved into modestly basic stock solutions to the following final concentrations: 0.025 mM NaOH, 0.2 M NaCl, 1.5 mM reagent. Each experiment used 10 μl of stock reagent (or sham) per 500 μl of medium. For FIGS. 13-18, the “low” concentration is 3 μM for each reagent, and the “high” concentration was 30 μM for each reagent.

epidermal proliferation = assay: Topical iopanoic acid cream in mice: epidermal thickness and BrdU incorporation; type: in vivo, CD-1 mice
Protocol: A topical iopanoic acid (IOP) cream was prepared by mixing IOP (Sigma, St. Louis, Mo.) into a liposome vehicle (Novasome A, IGI inc., New Jersey) previously described (Safer 2001, Safer 2003, Safer 2005). Each mouse received 30 μl of the liposome vehicle applied directly to a 3×3 cm area of shaved skin on the animal's backs. The preparation was applied daily and not removed.
The treatment groups received cream containing 6 mg IOP daily. The control groups were treated with daily application of vehicle alone.
Five week old CD-1 mice were randomized into 2 groups (FIG. 1). The groups had 6 mice each and were evaluated in a crossover study. Each mouse in the crossover study was evaluated twice: once after a 6 mg daily IOP treatment and once after treatment with vehicle alone. Six mice received IOP first followed by a 3 month wash-out/healing completion period. The animals were then evaluated after treatment with topical vehicle alone. Six mice started with vehicle alone and received the IOP treatment after the 3 month wash-out/healing completion period.
All topically treated mice were caged separately to avoid animals receiving doses from their neighbors during grooming. The cream was applied to a midline cephalad region on the animals' backs to minimize the impact of personal grooming on dosing.
Epidermal proliferation was assessed by measuring both epidermal thickness and 5-bromo-2′-deoxyuridine (BrdU, Boehringer Mannheim, Mannheim, Germany) incorporation into DNA. At the completion of the protocols noted, animals were biopsied with full thickness dorsal skin samples were taken. Three hours prior to biopsy, each mouse had received intraperitoneal BrdU as previously described (Safer 2001). Skin samples were fixed in formalin and embedded in paraffin. From each paraffin block, […] sections were made and stained with hematoxylin and eosin (H&E). Epidermal thickness was measured in 10 random locations for each mouse. Additional 5 μm skin histology sections from the above paraffin blocks were stained for BrdU as previously described (Safer 2001). BrdU data are reported as the number of cell nuclei stained/[…] epidermis.

[2] = Serum total thyroxine (T4) by radioimmunoassay in topically treated mice; type: in vivo, CD-1 mice; details: mice treated with IOP cream, relative to control mice; listed as IOP
Protocol: Serum total thyroxine levels were measured with a standard radioimmunoassay kit (ICN, Orangeburg, N.Y.). Unlike other thyroid hormone kits which use anti-mouse antibodies, the ICN kit uses anti-rabbit antibodies and avoids spuriously elevated readings in mice. Thyroid hormone levels for mice fall at the low end of the human range so the human standards included in the kit were used.

[3] = system: human epidermal keratinocytes; assay: Human epidermal keratinocyte proliferation, 3H-thymidine incorporation; type: cell-based; details: overnight incubation; 10 μl of 1.5 mM stock per 500 μl medium; ±SEM
Protocol: as §1, with “keratinocytes” for “prostate (HPV) cells”, “in primary culture on a support matrix derived from irradiated fibroblasts.” for “under standard conditions.”
as §2

[4] = system: Opossum kidney (OK) cells; assay: Opossum kidney cell proliferation, 3H-thymidine incorporation; type: cell-based; details: overnight incubation; 10 μl of 1.5 mM stock per 500 μl medium; ±SEM
Protocol: as §1, with “Opossum kidney (OK)” for “Human prostate (HPV)”
as §2

[5] = system: Monkey kidney (CV-1) cells; assay: Monkey kidney cell proliferation, 3H-thymidine incorporation; type: cell-based; details: overnight incubation; 10 μl of 1.5 mM stock per 500 μl medium; ±SEM
Protocol: as §1, with “Monkey kidney (CV-1)” for “Human prostate (HPV)”
as §2

[6] = topical cream, 6 mg IOP daily, vs vehicle, p<0.05

## O=C(NCC(O)CO)c1c(I)c(C(=O)NCC(O)CO)c(I)c(N(CCO)C(=O)CO)c1I (centres unmarked) [ioversol]
[1]
  inhibition of proliferation of human prostate cells relative to control cultures: 22%

## CCC(Cc1c(I)cc(I)c(N)c1I)C(=O)O (centres unmarked) [iopanoic acid]
Epidermal proliferation; Group 1 mice: control vehicle first, then IOP (FIG. 2)
  epidermal proliferation: significantly diminished
Epidermal proliferation; Group 2 mice: IOP first, then control vehicle (FIG. 3)
  epidermal proliferation: significantly diminished
Epidermal proliferation; [6]
  less epidermal BrdU staining than control mice: 30%
  thinner epidermis than control mice: 20%
[2]
  serum T4 levels: remained steady; also recorded: not changed
[3]
  inhibition of proliferation of human epidermal keratinocytes relative to control cultures: 61±9%
[1]
  inhibition of proliferation of human prostate cells relative to control cultures: 26±4%

## CC(C)NCC(O)COc1cccc2ccccc12 (centres unmarked) [propranolol]
[3]
  inhibition of proliferation of human epidermal keratinocytes relative to control cultures: 62±3%
[1]
  inhibition of proliferation of human prostate cells relative to control cultures: 84±8%
[4]
  inhibition of proliferation of opossum kidney cells relative to control cultures: 88±10%
[5]
  inhibition of proliferation of monkey kidney cells relative to control cultures: 82±5%

## CN(C)/C=N/c1c(I)cc(I)c(CCC(=O)[O-])c1I.[Na+] [ipodate sodium]
[3]
  inhibition of proliferation of human epidermal keratinocytes relative to control cultures: 14±6%
[1]
  inhibition of proliferation of human prostate cells relative to control cultures: 30±5%

Source: US20090082451A1, “USE OF THYROID HORMONE CONVERSION INHIBITORS” (Trustees of Boston University, priority 2004, published 2009)
